Read-outs that look alike come from different tables or passages of the source.
Legend:
[1] = Excipient compatibility study for diazoxide choline salt; assay type: physicochemical
[2] = Moisture sorption analysis; assay type: physicochemical
Experimental: Moisture Sorption Analysis was performed with a Hiden IGAsorp Moisture Sorption Instrument, Samples were first dried at 0% relative humidity at 25° C. until an equilibrium weight was reached, or for a maximum of 4 hours. Samples were then subjected to an isothermal (25° C.) scan from 10-90% relative humidity in steps of 10%. The samples were allowed to equilibrate to an asymptotic weight at each point for a maximum of 4 hours. Following absorption, a desorption scan from […] relative humidity (at 25° C.) was run in steps of −10%, again allowing a maximum of 4 hours for the samples to equilibrate. The resulting samples after desorption were dried at 80° C. for two hours and analyzed by XRPD.

[3] = Form conversion and degradation under thermal stress (60° C.)
Experimental: Studies were also conducted to evaluate the likelihood for conversion and degradation under thermal stress.

[4] = Polymorph screening crystallizations and characterization of forms (XRPD, DSC, TGA); assay type: physicochemical
Experimental: DSC analysis were conducted with a Mettler 822 DSC, by measuring the amount of energy released by a sample, as the sample was heated from 30° C. to between 300-500° C. at a rate of 10° C./min. Typical applications of DSC analysis include determination of melting point temperature and the heat of melting; measurement of the glass transition temperature; curing and crystallization studies; and identification of phase transformations.
TGA measurements were conducted with a Mettler 851 SDTA/TGA, by measuring weight loss as a function of increasing temperature, as the samples were heated from 30° C. to 230° C. at a rate of 10° C./min. The TCA can be used to analyze desorption and decomposition behavior, characterize oxidation behavior, set burnout or conditioning parameters (temperature/ramp rate/time), and determine chemical composition.
XRPD samples were analyzed with a Shimadzu XRD-6000 system, using a Cu Kα, 40 kV, 40 mA X-ray tube. The divergence and scatter slits were 1.00 deg, and the receiving slit was 0.30 mm. Samples were continuously scanned at a range of 3.0-45.0 deg, with a step size of 0.04 deg., at a scan rate of 2 deg/min.
After hot filtration the vials were placed in a refrigerator (4° C.) for 16 hours. […] All solids were dried in vacuo at ambient temperature and 30 in. Hg.
After hot filtration the vials were then slowly cooled to room temperature at the rate of 20° C./h and stirred at room temperature for 1-2 hours. All solids were dried in vacuo at ambient temperature and 30 in. Hg.
Solvents for crystallizations were chosen based on the solubility screen summarized below.

[5] = pH 2
Experimental: Solubility concentrations were determined using area-percent calculations with HPLC calibration curves.

[6] = Slurry studies of inter-conversion of the solid form; details: n-heptane, dichloromethane; for inter-conversion of the solid form in slurry: room temperature, 7 and 14 days, toluene (Table 16 Form B: CH2Cl2, THF, t-AmOH)
healthy volunteers [7] = system: healthy volunteers
Experimental: (§1) A randomized double-blind, placebo-controlled clinical trial was conducted in 24 healthy volunteers. They were randomized in a 2:1 ratio of treated to placebo. […] The dose was administered once per day in the morning for a period of 7 days. A number of lipid parameters were measured at baseline and again on day 7 including fasting triglycerides, total cholesterol, LDL cholesterol, HDL cholesterol, and non-HDL cholesterol. Additionally, blood pressure was measured on a daily basis.

healthy volunteers [8] = system: healthy volunteers; remark: listed apart in the source
Experimental: as §1
In PK008, the dose was administered as one and one ½ tablet formulation K′.

[9] = system: hypertriglyceridemic patients; assay: Crossover of formulations U and K′ (435 mg/day diazoxide choline): lipid responses; assay type: in vivo, human; details: 15 days, 435 mg/day diazoxide choline once daily
Experimental: (§2) A clinical study was conducted in 12 hypertriglyceridemic patients. […] Treatment continued for 16 days. The endpoint of the study was percentage change from baseline to day 15 of triglycerides, total cholesterol, LDL cholesterol, HDL cholesterol and non-HDL cholesterol. Lipid parameters were measured at baseline and on days 7 and 15. Blood pressure was collected at multiple time points.

[10] = system: hypertriglyceridemic patients
Experimental: as §2, with “After day 8 they were crossed over from one formulation to the other formulation. […]” for “Treatment continued for 16 days.”

[11] = mouse, in vivo; for AUC0-6: 50 mg/kg
Experimental: The study used 4 mice dosed per treatment arm. Following, a single intravenous or oral dose, administered by gavage, pharmacokinetic samples were collected at 4 time points: 0.5, 1, 3, and 6 hours post-dosing. Two mice were sampled at each timepoint, with each mouse contributing samples to two timepoints. Each test drug was administered as a 50 mg/kg dose, which yields nearly equal molar concentrations. […] Blood samples were collected into tubes containing dipotassium EDTA as the anticoagulant and placed on ice packs until centrifugation (at 3000 rpm for 10 minutes at 4° C.). After centrifugation, samples were stored at −70° C. until they were thawed for analysis. Circulating drug levels were measured using a precise and reproducible LC-MS/MS assay.

[12] = 25° C., listed as Potassium diazoxide salt
[13] = 300 mg diazoxide/day, formulation U
[14] = baseline to day 7, 300 mg diazoxide/day as formulation U
[15] = Study EC004, 435 mg diazoxide choline, 7 days
[16] = Study TR002, 508 mg diazoxide choline, 49 days

SMILES: CC1=Nc2ccc(Cl)cc2S(=O)(=O)N1 [Diazoxide Control]
- diazoxide choline salt assayed in mixture with excipient ([1]; 1 Month 40° C./75% RH): 99.0 % (w/w)
- diazoxide choline salt assayed in mixture with excipient ([1]; 1 Month 50° C.): 99.4 % (w/w)

SMILES: CC1=NS(=O)(=O)c2cc(Cl)ccc2[N-]1.[K+] [potassium salt of diazoxide]
- crystalline form after moisture sorption/desorption (XRPD) [2]: changed to an alternate crystalline form
- Moisture Sorption (hygroscopicity) ([2]; 25° C.): hygroscopic
- hydrate formation (hysteresis upon desorption) ([2]; 25° C.): hemihydrate from 0-30% RH and a monohydrate from 35-75% RH
- Moisture Sorption (hygroscopicity) [2, 12]: deliquescent -
- hydrate formation (hysteresis upon desorption) [2, 12]: hemi/monohydrate
- water absorbed ([2]; 60% RH, 25° C.): 5.4 wt %
- water absorbed ([2]; 90% RH, 25° C.): 38.3 wt %
- degradation under thermal stress (HPLC gradient area percent) ([3]; 60° C., 14 days): did not show any significant degradation
- form conversion and degradation under thermal stress (XRPD, DSC) ([3]; 60° C., closed, protected from light, 7 and 14 days): showed unique peaks
- Form ([4]; Table 26, slow cooling, Water): Free form
- Form ([4]; Table 30, single solvent, fast-cooling, MeCN): C + D
- solid form after the solubility analysis (XRPD) [5]: changed back to the free form diazoxide
- degradation after slurry study (HPLC gradient area percent) ([6]; toluene, 14 days): did not show any significant degradation
- inter-conversion of the solid form in slurry [6]: no propensity of inter-conversion

SMILES: CC1=Nc2ccc(Cl)cc2S(=O)(=O)[N-]1.C[N+](C)(C)CCO [diazoxide choline]
- hydrate formation (hysteresis upon desorption) ([2]; 25° C.): does not form a stable hydrate
- Moisture Sorption (hygroscopicity) ([2]; 25° C., listed as Choline diazoxide salt): deliquescent -
- Moisture Sorption (hygroscopicity) ([2]; 25° C., listed as choline salt of diazoxide): hygroscopic
- moisture absorbed ([2]; 80% relative humidity, 25° C.): over 28%
- crystalline form after moisture sorption/desorption (XRPD) ([2]; listed as choline salt of diazoxide): changed to an alternate crystalline form
- degradation under thermal stress (HPLC gradient area percent) [3]: did not show any significant degradation
- form conversion and degradation under thermal stress (XRPD, DSC) [3]: consistent with the starting material, as well as the presence of additional unique peaks
- HDL cholesterol, Percent change from base-line (healthy volunteers [7]; 300 mg diazoxide/day, 7 days): 8.2%
- LDL cholesterol, Percent change from base-line (healthy volunteers [7]; 300 mg diazoxide/day, 7 days): −5.4%
- Total cholesterol, Percent change from base-line (healthy volunteers [7]; 300 mg diazoxide/day, 7 days): −2.3%
- Triglycerides, Percent change from base-line (healthy volunteers [7]; 300 mg diazoxide/day, 7 days): −13.2%
- non-HDL cholesterol, Percent change from base-line (healthy volunteers [7]; 300 mg diazoxide/day, 7 days): −6.3%
- HDL cholesterol, Baseline mean ± SEM (healthy volunteers [7]; [13]): 49 ± 3.3 mg/dL
- HDL cholesterol, Day 7 mean ± SEM (healthy volunteers [7]; [13]): 53 ± 2.9 mg/dL
- LDL cholesterol, Baseline mean ± SEM (healthy volunteers [7]; [13]): 111 ± 5.8 mg/dL
- LDL cholesterol, Day 7 mean ± SEM (healthy volunteers [7]; [13]): 105 ± 4.9 mg/dL
- Total cholesterol, Baseline mean ± SEM (healthy volunteers [7]; [13]): 175 ± 7.5 mg/dL
- Total cholesterol, Day 7 mean ± SEM (healthy volunteers [7]; [13]): 171 ± 6.4 mg/dL
- Triglycerides, Baseline mean ± SEM (healthy volunteers [7]; [13]): 76 ± 7.8 mg/dL
- Triglycerides, Day 7 mean ± SEM (healthy volunteers [7]; [13]): 66 ± 3.9 mg/dL
- non-HDL cholesterol, Baseline mean ± SEM (healthy volunteers [7]; [13]): 126 ± 6.6 mg/dL
- non-HDL cholesterol, Day 7 mean ± SEM (healthy volunteers [7]; [13]): 118 ± 5.5 mg/dL
- increase HDL cholesterol (healthy volunteers [7]; [14]): 8.2%
- reduction in total cholesterol, LDL cholesterol and non-HDL cholesterol versus placebo arm (healthy volunteers [7]; [14]): reduction in the diazoxide choline treated arm was greater
- reduction of triglycerides (healthy volunteers [7]; [14]): 13.2%
- reduction in diastolic blood pressure (healthy volunteers [8]; 7 days, 300 mg diazoxide/day as formulation U, healthy volunteers): 6.2 mmHg
- Diastolic blood pressure, Baseline (healthy volunteers [8]; [15]): 69.4 mmHg
- Diastolic blood pressure, End of treatment (healthy volunteers [8]; [15]): 63.2 mmHg
- Systolic blood pressure, Baseline (healthy volunteers [8]; [15]): 113.2 mmHg
- Systolic blood pressure, End of treatment (healthy volunteers [8]; [15]): 113.5 mmHg
- Diastolic blood pressure, Baseline (healthy volunteers [8]; [16]): 77.7 mmHg
- Diastolic blood pressure, End of treatment (healthy volunteers [8]; [16]): 67.0 mmHg
- Systolic blood pressure, Baseline (healthy volunteers [8]; [16]): 118.1 mmHg
- Systolic blood pressure, End of treatment (healthy volunteers [8]; [16]): 117.0 mmHg
- HDL cholesterol [9]: marked increase
- triglycerides, total cholesterol, LDL cholesterol and nonHDL cholesterol [9]: marked reductions
- average drop in standing blood pressure ([10]; 7 days of treatment): ~8 mmHg
- standing diastolic blood pressure ([10]; after 7 days of treatment, baseline 80): 75.5 mmHg
- standing systolic blood pressure ([10]; after 7 days of treatment, baseline 123): 112 mmHg
- supine diastolic blood pressure ([10]; after seven days of treatment, baseline 69): 62.5 mmHg
- supine systolic blood pressure ([10]; after seven days of treatment, baseline 121): 116 mmHg
- average drop in supine blood pressure ([10]; seven days of treatment): ~6 mmHg
- solid form after the solubility analysis (XRPD) [5]: changed back to the free form diazoxide
- Absolute oral bioavailability [11]: 100%
- AUC0-6 ([11]; iv): 137.176 µg·h/mL
- AUC0-6 ([11]; po): 141.26 µg·h/mL
- inter-conversion of the solid form in slurry ([6]; listed as Choline Diazoxide Salt): no propensity of inter-conversion

Reference: patent publication US20120238554A1, “SALTS OF POTASSIUM ATP CHANNEL OPENERS AND USES THEREOF” (priority 2007, published 2012)
